Reference: patent publication US9155761B2, “Method for the treatment of cancer” (UNIVERSITY COLLEGE CORK, NATIONAL UNIVERSITY OF IRELAND, …, priority 2009, dated 2015)
“Also recorded” adds a separate entry of the source.

Assays:
LC3 in OE19 cells = test: LC3 / GFP-LC3 processing and distribution (Western blot, fluorescence microscopy); assay type: cell-based, human; details: 5-FU (25 & 50 μM) or cisplatin (10 & 25 μM)
Experimental: (§1) Total cellular protein extracts were prepared by scraping the cells into modified RIPA buffer (50 mM Tris HCl (pH 7.4), 150 mM NaCl, 0.25% Sodium deoxycholate, 1% Igepal, protease inhibitors 1 mM EDTA, 1× Pefabloc, 1× protease inhibitor cocktail, 1 mM Na3VO4, 1 mM NaF). All protein samples were separated by SDS-PAGE (10/12%) and electrophoretically transferred onto nitrocellulose membrane. All primary antibodies were incubated overnight at 4° C.: anti-phospho mTOR (Ser 2448) and anti-p70^S6K (Thr 389) (Cell Signaling Technologies, UK), anti-Beclin-1 (BD Biosciences, UK) and anti-LC3 (Medical & Biological Laboratories, Japan). The membranes were incubated with the relevant horseradish peroxidase conjugated secondary antibodies (DakoCytomation, Dublin) and detected by chemiluminescence (ECL Amersham, UK).
(§2) To visualize and quantify the formation of autophagic vesicles, the green fluorescent protein (GFP)-LC3 (pEGFP-LC3) expression vector, kindly supplied by Dr. T. Yoshimori (National Institute of Genetics, Japan) was used. Cells were transiently transfected with the Amaxa electroporation system according to the supplier's protocol. Twenty-four hours post transfection, cells were treated with 5-FU and/or Cisplatin, fixed in 4% paraformaldehyde in PBS and transferred onto slides using a non-fluorescent fixative for analysis by fluorescence microscopy. Alternatively, Western Blot analysis was used to assess the expression and processing of LC3. […] The membrane sequestered, lipid-conjugated form of LC3-II remains with the autophagosome membrane after the vesicle has formed, and levels of both isoform are detected by Western Blot. Transfection efficiency was consistent for a given cell line, OE33 and KYSE450 cell lines (˜60-70%) compared to OE19 and OE21 cell lines (˜30%).

LC3 in OE33 cells = test: as above; assay type: cell-based, human; details: 5-FU or cisplatin (images not shown)
Experimental: as §1, §2

LC3 in KYSE450 cells = test: as above; assay type: cell-based, human; details: 5-FU or cisplatin (data not shown)
Experimental: as §1, §2

LC3 in OE21 cells = test: as above; assay type: cell-based, human; details: 5-FU or cisplatin (images not shown)
Experimental: as §1, §2

KYSE450 [1] = assay type: cell-based, human; details: 10 μM cisplatin, 48 hours
Experimental: (§3) Viability of esophageal cells was assessed using the MTT reduction assay. Cells are seeded at 2×10^4 (OE33/OE19) and 1×10^4 (OE21/KYSE450) cells per cm^2, treated for 48-96 hours and incubated for an additional 60 minutes at 37° C. in 0.5 mg/ml MTT dye. Viable, metabolizing cells reduce MTT dye, producing a dark formazan product, with absorbance read at 562 nm, reference wavelength 620 nm. To assess recovery, at 48 hours post treatment, in replicate plates (identical seeding & treatment times), all drugs were removed, culture medium was replaced, and these cells were cultured for a further 48-96 hours, to monitor their ability to recover and MTT assay was repeated.
(§4) In analysis of MTT data, values are presented as the Mean absorbance+/−Standard Error of the Mean (S.E.M) for four independent experiments. Statistical analysis was performed with paired Student's t-test. Values of p<0.05 were considered statistically significant. Asterisks indicate the level of significance.

OE21 [2] = test: MTT viability and recovery assay; assay type: cell-based, human; details: 10 μM cisplatin, 48 hours
Experimental: as §3, §4

OE19 [3] = test: MTT viability and recovery assay; assay type: cell-based, human; details: 10 μM cisplatin, 48 hours
Experimental: as §3, §4

OE33 [4] = test: MTT viability and recovery assay; assay type: cell-based, human; details: 10 μM cisplatin, 48 hours
Experimental: as §3, §4

OE21 [5] = test: Monodansylcadaverine (MDC)-labelled vacuoles; assay type: cell-based, human; details: 25 μM
Experimental: (§5) MDC is an autofluorescent weak base that accumulates in acidic lysosomal vacuoles, showing high selectivity for autophagosomes, due to the high level of unhydrolyzed membrane lipids from engulfed organelles, which enhance MDC fluorescence. Cells were incubated with 0.1 mM MDC in PBS at 37° C. for 10 minutes (Biederbick et al., 1995), washed and immediately analyzed by fluorescent microscopy.

KYSE450 [6] = test: Monodansylcadaverine (MDC)-labelled vacuoles; assay type: cell-based, human; details: 25 μM
Experimental: as §5

OE19 [7] = test: Monodansylcadaverine (MDC)-labelled vacuoles; assay type: cell-based, human; details: 25 μM
Experimental: as §5

OE33 [8] = test: Monodansylcadaverine (MDC)-labelled vacuoles; assay type: cell-based, human; details: 25 μM
Experimental: as §5

KYSE450 [9] = test: Evaluation of cell death morphology by light microscopy; assay type: cell-based, human; details: 5-FU (50 μM) or cisplatin (40 μM), 48 hours
Experimental: (§6) Morphological features of cells treated with 5-fluorouracil (5-FU)/cisplatin, without and with 3-MA, LY294002, Bafilomycin, Lithium chloride, rapamycin or HA14-I were examined by light microscopy. Morphologies of treated cells were examined 24 and 48 hours post treatment, treatment times are referred to in figure legends. Aliquots of vehicle control and drug treated cells were cytospun onto glass slides and stained with Rapi-Diff (Braidwood laboratories, UK). The extent of apoptotic and non-apoptotic cell death was determined by counting the cells in at least three fields of view per slide, with an average of ˜100 cells per field. Apoptotic cell death is characterized by the presence of two or more of the following morphological features: cell shrinkage, chromatin condensation, DNA degradation and fragmentation into ‘apoptotic bodies’, within an intact plasma membrane. Autophagic cell death was identified by clear elevation of cytoplasmic vesicles, loss of cytoplasmic material, pyknosis of the nuclear material and an intact nuclear membrane. Cytospin images are representative of at least three independent experiments.

OE19 [10] = test: as above; assay type: cell-based, human
Experimental: as §6

OE33 [11] = test: as above; assay type: cell-based, human; details: 5-FU (50 μM) or cisplatin (40 μM), 48 hours
Experimental: as §6

OE21 [12] = details: 48 hours
Experimental: as §6

[13] = system: active caspase-3 in OE19 cells; test: Active caspase-3 by flow cytometry; assay type: cell-based, human; details: 48 hours after treatment
Experimental: (§7) To examine control and 5-Fluorouracil treated cells for evidence of caspase activity cells were processed by trypsinization, 48 hours after treatment. […] This was detected with an anti rabbit FITC conjugated secondary antibody, and samples were analyzed by FACScan at 530 nm (FL-1). Percentages indicate the proportion of cells with active caspase-3, detected as an increase in the number of FITC (FL-1) labelled cells.

[14] = system: active caspase-3 in OE21 cells; test: Active caspase-3 by flow cytometry; assay type: cell-based, human; details: 48 hours after treatment
Experimental: as §7

[15] = system: active caspase-3 in OE33 cells; test: Active caspase-3 by flow cytometry; assay type: cell-based, human; details: 48 hours after treatment
Experimental: as §7

[16] = system: active caspase-3 in KYSE450 cells; test: Active caspase-3 by flow cytometry; assay type: cell-based, human; details: 48 hours after treatment, range of concentrations
Experimental: as §7

OE21 [17] = test: Mitochondrial depolarization, JC-1 probe; assay type: cell-based, human; details: 48 hour treatment
Experimental: (§8) Mitochondrial membrane potential was determined using the JC-1 probe (Molecular Probes). In non-apoptotic cells, JC1 accumulates as aggregates in the mitochondria, which stain red (FL2; 590 nm). At the onset of apoptosis, a loss of mitochondrial membrane potential (ΔΨm) releases the aggregated JC1, returning it to its monomeric form, which stains the cytosol green (FL1; 530 nm). Therefore, fluorescence of the JC-1 probe in the FL-2 channel decreases as mitochondrial membrane integrity is lost, while the fluorescence in FL-1 channel increases. Cells were incubated in JC1 (7.5 μg/ml) at 37° C. for 15 mins, and washed prior to analysis by flow cytometry (FACScan, Becton Dickinson). Percentages denote the proportion of cells with depolarised mitochondria following 48 hour incubation with 5-Fluorouracil and represent at least three independent experiments.

KYSE450 [18] = test: Mitochondrial depolarization, JC-1 probe; assay type: cell-based, human; details: 48 hour treatment
Experimental: as §8

OE19 [19] = test: Mitochondrial depolarization, JC-1 probe; assay type: cell-based, human; details: 48 hour treatment
Experimental: as §8

OE33 [20] = test: Mitochondrial depolarization, JC-1 probe; assay type: cell-based, human; details: 48 hour treatment
Experimental: as §8

[21] = 40 μM cisplatin, 48 hours (FIG. 1c)

With `N.N.[Cl][Pt][Cl]` [cisplatin] the “GFP-LC3 distribution (fluorescence microscopy)” value (“GFP-LC3 distribution” below) (LC3 in OE19 cells) was “Redistribution of GFP-LC3 from a diffuse cytosolic to a punctate autophagosome-associated pattern; also recorded: bright punctate patterns of GFP-LC3 fluorescence”, the “GFP-LC3 distribution” value (LC3 in OE33 cells) was “Diffuse cytoplasmic localization of GFP-LC3” and the “GFP-LC3 distribution” value (LC3 in KYSE450 cells) was “Redistribution of GFP-LC3 from a diffuse cytosolic to a punctate autophagosome-associated pattern”. For the same molecule, the “GFP-LC3 distribution” value (LC3 in OE21 cells) was “Diffuse cytoplasmic localization of GFP-LC3”, the “cell viability (MTT)” value (KYSE450 [1]) was “only marginally affected” and the “cell viability (MTT)” value (OE21 [2]) was “significant effects on cell viability”. For the same molecule, the “cell viability (MTT)” value (OE19 [3]) was “only marginally affected”, the “cell viability (MTT)” value (OE33 [4]) was “significant effects on cell viability” and the MDC staining pattern (OE21 [5]) was “MDC staining patterns are diffuse”. The MDC staining pattern (KYSE450 [6]) was “accumulation of MDC (bright blue punctate staining) throughout the cytoplasm”, the MDC staining pattern (OE19 [7]) was “accumulation of MDC (bright blue punctate staining) throughout the cytoplasm” and the MDC staining pattern (OE33 [8]) was “MDC staining patterns are diffuse”. For the same molecule, the cell death morphology (KYSE450 [9]) was “predominantly non-apoptotic morphology”, the apoptosis (OE19 [10]; [21]) was 0.5% and the non-apoptotic cell death (OE19 [10]; [21]) was 38%. For the same molecule, the cell death morphology (OE19 [10]; 5-FU (50 μM) or cisplatin (40 μM), 48 hours) was “predominantly non-apoptotic morphology”, the cell death morphology (OE33 [11]) was “predominantly apoptotic cell death morphology” and the apoptotic cell death (OE21 [12]; 40 μM cisplatin) was 31%. The non-apoptotic cell death (OE21 [12]; 40 μM cisplatin) was 3%, the cell death morphology (OE21 [12]; 5-FU (50 μM) or cisplatin (40 μM)) was “predominantly apoptotic cell death morphology” and the “active caspase-3” value [13] was “do not show caspase-3 activity”. The “active caspase-3” value [14] was “displayed active caspase-3”, the “active caspase-3” value [15] was “displayed active caspase-3” and the “active caspase-3” value [16] was “do not show caspase-3 activity”. The “mitochondrial depolarization (JC-1)” value (OE21 [17]) was “mitochondrial depolarization”, the “mitochondrial depolarization (JC-1)” value (KYSE450 [18]) was “do not show caspase-3 activity or mitochondrial membrane depolarization” and the “mitochondrial depolarization (JC-1)” value (OE19 [19]) was “do not show caspase-3 activity or mitochondrial membrane depolarization”. The “mitochondrial depolarization (JC-1)” value (OE33 [20]) was “mitochondrial depolarization”.
